The GI50 is the concentration giving 50% growth inhibition.

Test systems include A549; ACHN; BT-549; CCRF-CEM; M14; MDA-MB-231; MDA-N; NCI-H23; NCI-H460; SF-539; SR; UACC-62; DLD-1; HCT-116; HL-60; M19-MEL; RPMI-8226; DU-145; Hs-578T; T47D.
Assay in all cases: DTP human tumour cell line panel, 48 h

Each structure is given as a SMILES string.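 How tested: cells in 96-well plates exposed to compound for 48 hours at five concentrations. GI50 marks 50% less growth.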 Active and inactive are the calls of the source. Rule as the data show it: active = GI50 up to about 1.1 µM and inactive = higher. Where only a bound is given, the exact number is not on record here.

Consider `CCOP(=O)(OCC)/C(C#N)=C/c1cn(C)cn1`, for which the GI50 with A549, in the experiment on ACHN, in the experiment on BT-549, with CCRF-CEM, with M14 and in the experiment with MDA-MB-231 was > 100 µM (inactive) throughout. Besides, the GI50 in the experiment with MDA-N, in the experiment with NCI-H23, in the experiment on NCI-H460, with SF-539, in the experiment with SR and in the experiment on UACC-62 was > 100 µM (inactive) in each case.
With `O=C(NC(Cc1ccc(Br)cc1)C(=O)O)c1ccc(I)cc1` (centres undefined), the GI50 was > 100 µM (inactive) in the experiment on A549; > 72.9 µM (inactive) in the experiment on CCRF-CEM; > 100 µM (inactive) with DLD-1; > 100 µM (inactive) in the experiment on HCT-116; > 100 µM (inactive) in the experiment with HL-60; > 100 µM (inactive) in the experiment on M19-MEL. The GI50 was > 100 µM (inactive) in the experiment on NCI-H23; > 100 µM (inactive) with NCI-H460; > 68.9 µM (inactive) in the experiment on RPMI-8226; > 100 µM (inactive) in the experiment with SF-539; 71.9 µM (inactive) with UACC-62.
`C/C(=N\N)C(CN1CCOCC1)C(c1ccccc1)c1c(O)c2ccccc2oc1=O` (centres undefined): the GI50 in the experiment with A549 was > 75.2 µM (inactive); with ACHN, > 100 µM (inactive); in the experiment on BT-549, 32.3 µM (inactive); in the experiment on CCRF-CEM, 23.3 µM (inactive); with DLD-1, > 100 µM (inactive); in the experiment on DU-145, > 100 µM (inactive). Further, the GI50 is > 100 µM (inactive) in the experiment on HCT-116; 30.4 µM (inactive) with HL-60; > 100 µM (inactive) in the experiment on Hs-578T; > 76.6 µM (inactive) with M14; > 100 µM (inactive) in the experiment on M19-MEL; 91 µM (inactive) in the experiment with MDA-MB-231. For the same compound, the GI50 in the experiment on MDA-N is > 100 µM (inactive); in the experiment with NCI-H23 it was > 100 µM (inactive); in the experiment with NCI-H460 it was > 80.7 µM (inactive); in the experiment with RPMI-8226, > 67.1 µM (inactive); with SF-539 it was > 100 µM (inactive); in the experiment with SR, 46 µM (inactive). In addition, the GI50 in the experiment on T47D is 12.4 µM (inactive).
Consider `Cn1c(-c2ccccc2)c2cc3nc4ccccc4nc3cc2c1-c1ccccc1`, for which the GI50 with A549 was 3.94 µM (inactive); in the experiment with ACHN, 17.7 µM (inactive); in the experiment on BT-549 it was 21.6 µM (inactive); with DU-145 it was 30.3 µM (inactive); with HCT-116, 23.2 µM (inactive); with HL-60, 20.1 µM (inactive). Moreover, the GI50 is 10.6 µM (inactive) in the experiment on Hs-578T; 6.21 µM (inactive) in the experiment on M14; 24.2 µM (inactive) in the experiment with MDA-MB-231; 5.87 µM (inactive) with MDA-N; 7.14 µM (inactive) with NCI-H23; 4.19 µM (inactive) in the experiment with NCI-H460. Besides, the GI50 in the experiment with RPMI-8226 was 12.1 µM (inactive); with SF-539, 17.4 µM (inactive); in the experiment with SR it was 4.56 µM (inactive); in the experiment with T47D, 24.5 µM (inactive); with UACC-62, 11.7 µM (inactive).
In the case of `Cc1[nH]c(=O)nc(S)c1C(=O)Nc1cccc2cc3ccccc3cc12`, the GI50 in the experiment on ACHN, in the experiment on BT-549, in the experiment on CCRF-CEM, with DU-145, in the experiment with HCT-116 and with HL-60 was > 100 µM (inactive) each time. Also, the GI50 is > 100 µM (inactive) in the experiment on Hs-578T; > 100 µM (inactive) in the experiment with M14; > 10 µM (inactive) in the experiment on MDA-N; > 100 µM (inactive) in the experiment with NCI-H23; > 100 µM (inactive) with NCI-H460; > 100 µM (inactive) in the experiment on RPMI-8226. Further, the GI50 in the experiment with SR, in the experiment with T47D and with UACC-62 was > 100 µM (inactive) each time.
As to `COc1ccc(N2C(=O)C3c4[nH]c5cccc(C)c5c4C4CCC(C(C)(C)C)CC4C3C2=O)cc1` (centres undefined), the GI50 in the experiment on A549 was > 10 µM (inactive); in the experiment with ACHN, > 10 µM (inactive); in the experiment on DU-145, > 10 µM (inactive); in the experiment on HCT-116 it was 5.62 µM (inactive); in the experiment on HL-60 it was > 10 µM (inactive); with Hs-578T it was > 10 µM (inactive). The GI50 with M14 was > 10 µM (inactive); with MDA-MB-231, > 10 µM (inactive); in the experiment on MDA-N it was > 10 µM (inactive); in the experiment on NCI-H23 it was > 10 µM (inactive); with NCI-H460, 4.68 µM (inactive); with RPMI-8226, > 10 µM (inactive). Moreover, the GI50 in the experiment on SF-539, in the experiment on SR, in the experiment on T47D and with UACC-62 was > 10 µM (inactive) throughout.
As for `Nc1nc2c(c(-c3ccc(F)cc3)n1)COC/C2=C\c1ccc(F)cc1`, the GI50 with ACHN is 55.6 µM (inactive); with BT-549, 43.5 µM (inactive); in the experiment with CCRF-CEM, 52.5 µM (inactive); in the experiment on DU-145, > 100 µM (inactive); with HL-60, 39.1 µM (inactive); in the experiment with Hs-578T, 33.4 µM (inactive). The GI50 in the experiment with M14 was > 100 µM (inactive); in the experiment with MDA-MB-231 it was > 100 µM (inactive); in the experiment with MDA-N it was > 100 µM (inactive); in the experiment with NCI-H23, 45.6 µM (inactive); with NCI-H460, 15.5 µM (inactive); with RPMI-8226, 71.6 µM (inactive). The results for the GI50 in the experiment on SF-539, with SR and with UACC-62 were > 100 µM (inactive), 17 µM (inactive) and 79.4 µM (inactive), respectively.
Regarding `COc1cc(C2S/C(=C/c3ccccc3)C(=O)N2c2ccc(NC(C)=O)cc2)cc(OC)c1OC` (centres undefined), the GI50 with A549 was 23.8 µM (inactive); in the experiment with ACHN it was 22.7 µM (inactive); with BT-549, 16.3 µM (inactive); with CCRF-CEM, 0.319 µM (active); in the experiment with HCT-116, 12.7 µM (inactive); in the experiment with Hs-578T, 21.2 µM (inactive). Moreover, the GI50 in the experiment on M14 is 19.5 µM (inactive); with MDA-MB-231, 14.2 µM (inactive); in the experiment with MDA-N it was 19.3 µM (inactive); in the experiment with NCI-H23, 20 µM (inactive); in the experiment on SR, 18.9 µM (inactive); with T47D it was 11.6 µM (inactive). Besides, the GI50 in the experiment on UACC-62 was 20 µM (inactive).
`O=C(CSCC(=O)N/N=C/c1cccc(C(F)(F)F)c1)N/N=C/c1cccc(C(F)(F)F)c1`: the GI50 in the experiment on ACHN, in the experiment with BT-549, with DU-145, in the experiment with HL-60, in the experiment on Hs-578T and with M14 was > 100 µM (inactive) throughout. For the same compound, the GI50 in the experiment on NCI-H23, in the experiment with SF-539, in the experiment on T47D and in the experiment with UACC-62 was > 100 µM (inactive) each time.
As to `COc1ccc2cc1Oc1ccc(cc1)CC1c3c(cc(OC)c4c3Oc3cc5c(cc3O4)CCNC5C2)CCN1C` (centres undefined), the GI50 was 2.2 µM (inactive) with A549; 1.88 µM (inactive) in the experiment with ACHN; 2.77 µM (inactive) with BT-549; 1.24 µM (inactive) in the experiment on CCRF-CEM; 1.84 µM (inactive) in the experiment on HL-60; 2.19 µM (inactive) with Hs-578T. The GI50 in the experiment with M14 was 2.58 µM (inactive); with MDA-N it was 1.83 µM (inactive); in the experiment on NCI-H23, 2.06 µM (inactive); in the experiment with RPMI-8226, 1.63 µM (inactive); with SF-539, 1.7 µM (inactive); in the experiment with SR, 0.698 µM (active). Also, the GI50 in the experiment with UACC-62 was 1.82 µM (inactive).
In the case of `CC1(O)C2(c3ccccc3)CCC[N+]1(C)CC2` (centres undefined), the GI50 in the experiment on BT-549, with CCRF-CEM, with DU-145, in the experiment on HCT-116, in the experiment on HL-60 and in the experiment on Hs-578T was > 100 µM (inactive) each time. The GI50 in the experiment on M14, in the experiment with MDA-MB-231, in the experiment with MDA-N, in the experiment with NCI-H23, with NCI-H460 and with RPMI-8226 was > 100 µM (inactive) in each case. The GI50 in the experiment with T47D and in the experiment with UACC-62 was > 100 µM (inactive) each time.
Consider `O=S(=O)(O)c1cc(S(=O)(=O)O)c2cc(/N=N/c3ccc(/N=N/c4ccc(/C=C/c5ccc(/N=[N+](/[O-])c6ccc(/C=C/c7ccc(/N=N/c8ccc(/N=N/c9ccc%10cc(S(=O)(=O)O)cc(S(=O)(=O)O)c%10c9)cc8)cc7S(=O)(=O)O)c(S(=O)(=O)O)c6)cc5S(=O)(=O)O)c(S(=O)(=O)O)c4)cc3)ccc2c1`, for which the GI50 in the experiment with A549 is > 65.3 µM (inactive); in the experiment with CCRF-CEM, > 100 µM (inactive); in the experiment with DLD-1, > 81.3 µM (inactive); in the experiment on HCT-116, > 28.6 µM (inactive); in the experiment with HL-60, 54.1 µM (inactive); in the experiment on M19-MEL, > 25 µM (inactive). Further, the GI50 in the experiment on NCI-H23 was > 77.8 µM (inactive); in the experiment with NCI-H460, > 40.3 µM (inactive); in the experiment on RPMI-8226 it was 46.5 µM (inactive); in the experiment with SF-539, > 59 µM (inactive); in the experiment with UACC-62, 7.93 µM (inactive).
Turning to `O=C1OC(C(O)CO)C(O)=C1O` (centres undefined), the GI50 with A549 was > 100 µM (inactive); in the experiment with ACHN, > 100 µM (inactive); in the experiment on CCRF-CEM, > 10 µM (inactive); in the experiment with DU-145, > 100 µM (inactive); in the experiment with HCT-116, > 100 µM (inactive); in the experiment on HL-60, > 100 µM (inactive). Further, the GI50 with Hs-578T, with M14, in the experiment with MDA-MB-231, in the experiment on MDA-N, in the experiment with NCI-H23 and in the experiment with NCI-H460 was > 100 µM (inactive) in each case. Besides, the GI50 in the experiment with RPMI-8226 was 49.2 µM (inactive); with SF-539 it was > 100 µM (inactive); in the experiment with SR it was 55.3 µM (inactive); in the experiment with T47D, > 100 µM (inactive).
As for `CC1(CO)COC(C)(C)OC1`, the GI50 in the experiment on A549, with ACHN, in the experiment on CCRF-CEM, in the experiment on DU-145, in the experiment with HCT-116 and in the experiment with Hs-578T was > 100 µM (inactive) in each case. Moreover, the GI50 in the experiment on MDA-MB-231, in the experiment on MDA-N, in the experiment with NCI-H23, in the experiment with NCI-H460, in the experiment with SR and with T47D was > 100 µM (inactive) throughout.
